{
  "source": "patent US10596162B2",
  "about": "(WYETH LLC, priority 2005, dated 2020)",
  "key": {"[1]": {"test_system": "NCI-H1650 cells", "experiment": "Generation of drug-resistant NCI-H1650 colonies", "type": "cell-based", "settings": "for generation of drug-resistant clones in vitro: NCI-H1650, irreversible inhibitors at concentrations above 10 μM, even after ethyl methane sulfonate mutagenesis"}, "[2]": {"test_system": "EGFR autophosphorylation (Y1068), AKT and MAPK phosphorylation in NCI-H1650 cells", "experiment": "Immunoblotting of EGFR signaling in parental cells", "type": "cell-based", "settings": "delE746-A750 EGFR", "protocol": "Viable cells were counted 72 h after treatment with double-stranded RNA and are shown as a fraction relative to cells treated with nonspecific siRNA, with standard deviations based on triplicate samples. […] Rhodamine-tagged EGF is used to label EGFR at 5 and 20 rain, after addition of ligand. […] (Zeiss microscope, ×63 magnification).\n(§1) Immunoblotting and Signaling Studies. […] Lysates were prepared in 2× gel loading buffer, sonicated, boiled, and then separated by 10% SDS/PAGE, followed by electrotransfer to polyvinylidene fluoride (PVDF) membranes, and immunoblotting. Antibodies used were phospho-EGFR Y1068 and phospho-mitogen-activated protein kinase (MAPK) (Cell Signaling Technology, Beverly, Mass.), phospho-AKT (BioSource International, Camarillo, Calif.), and total EGFR, MAPK, AKT, and tubulin (Santa Cruz Biotechnology)."}, "[3]": {"test_system": "EGFR autophosphorylation, AKT and MAPK phosphorylation in NCI-H1975 cells (L858R and T790M EGFR)", "experiment": "Immunoblotting of EGFR signaling in T790M cell line", "type": "cell-based", "protocol": "Total EGFR, AKT, and MAPK are shown as loading controls.\nas §1"}, "[4]": {"test_system": "NCI-H1650 cells (delE746-A750 EGFR)", "experiment": "Proliferation/cell killing of bronchoalveolar cancer cell line, crystal violet staining", "settings": "NCI-H1650 vs NCI-H1666"}, "[5]": {"molecular_target": "ERBB2 (Homo sapiens, UniProt P04626)", "sequence (P04626 23-1255)": "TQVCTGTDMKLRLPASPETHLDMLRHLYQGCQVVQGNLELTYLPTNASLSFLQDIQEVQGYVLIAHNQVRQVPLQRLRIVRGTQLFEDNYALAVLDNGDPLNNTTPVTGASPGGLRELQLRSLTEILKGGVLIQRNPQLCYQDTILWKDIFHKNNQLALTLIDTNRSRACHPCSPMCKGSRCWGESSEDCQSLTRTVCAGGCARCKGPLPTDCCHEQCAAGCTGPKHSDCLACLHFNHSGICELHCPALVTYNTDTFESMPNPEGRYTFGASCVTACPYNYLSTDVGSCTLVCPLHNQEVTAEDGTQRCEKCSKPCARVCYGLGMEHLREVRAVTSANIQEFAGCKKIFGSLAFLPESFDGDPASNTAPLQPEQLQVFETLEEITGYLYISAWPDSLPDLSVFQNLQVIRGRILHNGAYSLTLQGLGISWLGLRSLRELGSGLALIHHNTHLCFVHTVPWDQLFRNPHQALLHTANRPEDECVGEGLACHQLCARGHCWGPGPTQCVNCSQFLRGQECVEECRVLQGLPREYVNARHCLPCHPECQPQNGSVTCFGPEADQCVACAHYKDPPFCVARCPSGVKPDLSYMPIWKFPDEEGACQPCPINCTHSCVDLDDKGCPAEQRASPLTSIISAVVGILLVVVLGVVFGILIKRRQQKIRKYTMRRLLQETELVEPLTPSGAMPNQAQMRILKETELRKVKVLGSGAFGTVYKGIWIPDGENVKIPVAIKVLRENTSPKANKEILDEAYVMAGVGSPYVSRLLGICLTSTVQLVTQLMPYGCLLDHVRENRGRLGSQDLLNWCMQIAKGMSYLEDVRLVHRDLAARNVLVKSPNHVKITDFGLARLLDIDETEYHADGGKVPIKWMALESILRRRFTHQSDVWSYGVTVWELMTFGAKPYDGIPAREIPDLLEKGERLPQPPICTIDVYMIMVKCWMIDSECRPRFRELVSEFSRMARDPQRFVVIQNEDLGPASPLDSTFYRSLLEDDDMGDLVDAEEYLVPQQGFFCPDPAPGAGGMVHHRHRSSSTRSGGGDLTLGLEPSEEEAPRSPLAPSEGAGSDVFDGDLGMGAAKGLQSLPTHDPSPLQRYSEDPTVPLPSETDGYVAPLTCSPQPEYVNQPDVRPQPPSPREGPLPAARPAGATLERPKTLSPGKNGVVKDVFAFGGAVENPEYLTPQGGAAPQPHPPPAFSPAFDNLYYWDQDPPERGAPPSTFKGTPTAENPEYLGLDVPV", "settings": "read-out: IC50 for ERBB2; cited from earlier work"}},
  "data": [
    {"smiles": "CCOc1cc2ncc(C#N)c(Nc3ccc(OCc4cccc(F)c4)c(Cl)c3)c2cc1NC(=O)/C=C/CN(C)C", "note": "[HKI-357]", "values": [
      {"measurement": "generation of drug-resistant clones in vitro", "setting": "[1]", "value": "not readily generated"},
      {"measurement": "effectiveness relative to gefitinib in suppressing EGFR autophosphorylation (Y1068), AKT and MAPK phosphorylation", "setting": "[2]", "value": 10, "unit": "fold"},
      {"measurement": "suppression of ligand-induced EGFR autophosphorylation and downstream AKT and MAPK phosphorylation", "setting": "[3]", "value": "considerably more effective than gefitinib"},
      {"measurement": "killing of NSCLC cells harboring an EGFR mutation compared with cells expressing wild-type receptor", "setting": "[4]", "value": "increased cell killing"}
    ]},
    {"smiles": "CCOc1cc2ncc(C#N)c(Nc3ccc(F)c(Cl)c3)c2cc1NC(=O)/C=C/CN(C)C", "note": "[EKB-569]", "values": [
      {"measurement": "generation of drug-resistant clones in vitro", "setting": "[1]", "value": "not readily generated"},
      {"measurement": "IC50", "setting": "[5]", "value": 1.3, "unit": "µM"},
      {"measurement": "killing of NSCLC cells harboring an EGFR mutation compared with cells expressing wild-type receptor", "setting": "[4]", "value": "increased cell killing"}
    ]},
    {"smiles": "COc1cc2ncnc(Nc3ccc(F)c(Cl)c3)c2cc1OCCCN1CCOCC1", "note": "[gefitinib, Gefitinib, reference compound]", "values": [
      {"measurement": "frequency of drug-resistant colonies", "setting": "[1]; 20 μM gefitinib, irrespective of mutagen treatment", "value": "≈ 10^−5"},
      {"measurement": "generation of drug-resistant clones in vitro", "setting": "[1]", "value": "readily generated"}
    ]}
  ]
}
